Patent US5594144A, “Tropolone derivatives and pharmaceutical composition thereof for preventing and treating ischemic diseases” (The Upjohn Company, priority 1990, dated 1997)

Assays:
[1] = tested on: Brain microsomal fractions; assay: in vitro Anti-lipid peroxidation effect (TBAR production, Fe3+-ADP/NADPH); assay type: biochemical, rat (SD strain, male)
Experimental: 1. in vitro Anti-lipid peroxidation effect
Brain microsomal fractions were prepared from male rats of SD strain, and a portion (0.2 mg protein) was incubated at 37° C. for 15 minutes with a mixture of Fe^3+ (0.1 mM)--ADP (0.5 mM) in the presence or absence of the test compound, in final volume of 1 ml of 10 mM HEPES, 150 mM KCl, 0.2 mM NADPH, pH 7.4. After incubation, 1.5 ml of TCA-TBA-HCl reagent (16.7% trichloroacetic acid, 0.4% thiobarbituric acid, 0.278N hydrochloric acid) was added and the reaction mixture was heated in a boiling water for 15 minutes. After cooling in ice-bath, the reaction mixture was centrifuged, and the absorbance of the supernatant at 535 nm was measured. The amount of thiobarbituric acid reactive substance (TBAR) was obtained by calculation using an extinction coefficient of 1.56×10^5 […]. […] The results are shown in Table 1A for compounds of the formulas IA, IB, and IC, respectively. The compounds with highest inhibition rate have the greatest anti-lipid peroxidation effect.

[2] = tested on: Mouse Cerebral Ischemia/Reperfusion; assay: in vivo Behavior test (Mouse Cerebral Ischemia/Reperfusion Test); parameters: species or system mouse (ICR strain, male); conditions: ip
Experimental: Bilateral common carotid arteries of both sides of ICR strain male mice (about 8 weeks old) were occluded for 5 minutes while lightly anesthetized, then blood was reperfuged. The test compounds were intraperitoneally administered 10 minutes before occlusion and within 3 hours after reperfusion. Since a day after reperfusion, behavior disorder was evaluated by spontaneous motor activity of exploratory behavior, traction test and passive avoidance test. That is, spontaneous motor activity was evaluated as follows. Motor activity was measured by tilting cage method for 30 minutes since immediately after a mouse was placed in a measurement cage. If the motor activity was at least more than (average of spontaneous motion of the group received solvent) +2×SD, the compound was evaluated as "active." In traction test, both fore limbs of the mouse were placed on the horizontally stretched wire. If the mouse put its hind limb within 2 seconds, the compound was estimated as "active.". In passive avoidance test, a step-through type apparatus was used, and as acquisition trial of blood reperfusion, electrical shock (about 0.5 mA, 3 seconds) was given to the mice as soon as the whole body of mice entered the black room and on the next day test trial was carried out. The mouse which stayed in a light room for at least 300 seconds was estimated as an active example. In all tests, the test compound which provided at least 50% of active animals was determined as "active." The results are shown in Table 5.

[3] = tested on: pig right coronary artery; assay: in vitro Ca-antagonism (high K+ induced 45Ca-influx); assay type: cell-based; conditions: Sus scrofa, K+ 75 mM
Experimental: 2. in vitro Ca-antagonism
A strip of pig right coronary artery was depolarized with high K^+ (75 mM) for 30 minutes to induce voltage dependent ^45 Ca-influx. The extracellular ^45 Ca was chelated by adding EGTA and removed by washing, then the strip was lysed at 100° C. ^45 Ca in this lysate was measured as intracellular ^45 Ca by a scintillation counter. The concentration of the test compound was 10^-7, 10^-6, 10^-5 M, and applied until depolarization by K^+ was completed. Ratio of inhibition at various concentrations of the test compounds for increasing the intracellular ^45 Ca by K^+ was determined. The compound with high inhibition ratio has strong Ca-antagonism.

SMILES | Anti-Lipid Peroxidation (% inhibition) 10 μM [1] [%] | minimal effective dose [2] [mg/kg] | Anti-Lipid Peroxidation (% inhibition) 50 μM [1] [%] | inhibition at 10 µM [3] [%]
COc1cc(C(C)C)ccc(C2Sc3ccccc3N2CCCN(C)C)c1=O (centres unmarked) [Compound 12B, 2-(2'-oxo-3'-methoxy-5'-isopropyl-3',5',7'-cycloheptatrienyl)-3-[3-(N,N-dimethylamino)propyl]benzothiazoline] | 89.4 | 1 |  | 
COc1ccc(C(c2ccc(Cl)cc2)N2CCN(Cc3ccc(C(C)C)cc(OC)c3=O)CC2)cc1 (centres unmarked) [Compound 10A, 7-[4-(4-chloro-4'-methoxybenzhydryl)piperazin-1-methyl]-4-isopropyl-2-methoxy-2,4,6-cycloheptatrien-1-one] | 24.0 |  | 81.6 | 53
CC(C)c1ccc(CN2CCN(C(c3ccc(F)cc3)c3ccc(F)cc3)CC2)c(=O)c(NCCO)c1 [Compound 13C, 7-[4-(4,4'-difluorobenzhydryl)piperazino-1-methyl]-2-(N-2-hydroxyethylamino)-4-isopropyl-2,4,6-cycloheptatrien-1-one] | 36.9 |  | 89.5 | 90
CC(C)c1ccc(CN2CCN(C(c3ccc(F)cc3)c3ccc(F)cc3)CC2)c(=O)c(NCCNCCN)c1 [Compound 8C, 2-[N-2-(N'-2-aminoethylamino)ethylamino]-7-[4-(4,4'-difluorobenzhydryl)piperazino-1-methyl]-4-isopropyl-2,4,6-cycloheptatrien-1-one] | 33.1 |  | 92.2 | 60
COc1cc(C(C)C)ccc(CN2CCN(C(c3ccc(F)cc3)c3ccc(F)cc3)CC2C)c1=O (centres unmarked) [Compound 22C, 7-[4-(4,4'-difluorobenzhydryl)-2-methylpiperazino-1-methyl]-4-isopropyl-2-methoxy-2,4,6-cycloheptatrien-1-one] | 32.8 |  | 88.7 | 66
CC(C)c1ccc(CN2CCN(C(c3ccc(F)cc3)c3ccc(F)cc3)CC2)c(=O)c(NCCN)c1 [Compound 4C, 2-(N-2-aminoethylamino)-7-[4-(4,4'-difluorobenzhydryl)piperazino-1-methyl]-4-isopropyl-2,4,6-cycloheptatrien-1-one] | 45.2 |  | 92.9 | 54
COc1cc(C(C)C)ccc(C(C)N2CCN(C(c3ccccc3)c3ccc(Cl)cc3)CC2)c1=O (stereo not drawn) [Compound 4A, 7-{1-[4-(4-chlorobenzhydryl)]piperazinomethyl-α-methyl-}-4-isopropyl-2-methoxy-2,4,6-cycloheptatrien-1-one] | 25.8 |  | 75.1 | 45
CC(C)c1ccc(CN2CCN(C(c3ccc(F)cc3)c3ccc(F)cc3)CC2)c(=O)c(N2CCNCC2)c1 [Compound 19C, 7-[4-(4,4'-difluorobenzhydryl)piperazino-1-methyl]-4-isopropyl-2-(1-piperazino)-2,4,6-cycloheptatrien-1-one] | 30.1 |  | 89.1 | 62
CCCCOc1cc(C(C)C)ccc(CN2CCN(C(c3ccc(F)cc3)c3ccc(F)cc3)CC2)c1=O [Compound 13A, 2-butoxy-7-[4-(4,4'-difluorobenzhydryl)piperazino-1-methyl]-4-isopropyl-2,4,6-cycloheptatrien-1-one] | 23.1 |  | 27.4 | 38
CC(C)c1ccc(CN2CCN(C(c3ccc(F)cc3)c3ccc(F)cc3)CC2)c(=O)c(NCCNc2ccccn2)c1 [Compound 9C, 7-[4-(4,4'-difluorobenzhydryl)piperazino-1-methyl]-4-isopropyl-2-[N-2-(2-pyridylamino)ethylamino]-2,4,6-cycloheptatrien-1-one] | 88.1 |  | 91.6 | 38
CC(C)c1ccc(CN2CCN(C(c3ccc(F)cc3)c3ccc(F)cc3)CC2)c(=O)c(N2CCOCC2)c1 [Compound 18C, 7-[4-(4,4'-difluorobenzhydryl)piperazino-1-methyl]-4-isopropyl-2-morpholino-2,4,6-cycloheptatrien-1-one] | 26.7 |  | 41.2 | 84
CC(C)c1ccc(CN2CCN(C(c3ccc(F)cc3)c3ccc(F)cc3)CC2)c(=O)c(OCc2ccccc2)c1 [Compound 15A, 2-benzyloxy-7-[4-(4,4'-difluorobenzhydryl)piperazino-1-methyl]-4-isopropyl-2,4,6-cycloheptatrien-1-one] | 22.4 |  | 29.0 | 20
CC(C)c1ccc(CN2CCN(C(c3ccc(F)cc3)c3ccc(F)cc3)CC2)c(=O)c(NCCNc2ncccn2)c1 [Compound 10C, 7-[4-(4,4'-difluorobenzhydryl)piperazino-1-methyl]-4-isopropyl-2-[N-2-(2-pyrimidylamino)ethylamino]-2,4,6-cycloheptatrien-1-one] | 46.3 |  | 92.5 | 65
COc1cc(C(C)C)ccc(CN2CCCN(C(c3ccc(F)cc3)c3ccc(F)cc3)CC2)c1=O [Compound 23C, 7-[4-(4,4'-difluorobenzhydryl)hexahydro-1H-1,4-diazepin-1-ylmethyl]-4-isopropyl-2-methoxy-2,4,6-cycloheptatrien-1-one] | 21.6 |  | 90.7 | 86
CCCCC(c1ccc(C(C)C)cc(OC)c1=O)N1CCN(C(c2ccccc2)c2ccc(Cl)cc2)CC1 (centres unmarked) [Compound 5A] | 30.5 |  | 38.7 | 19
CCN(CCN(C)C)c1cc(C(C)C)ccc(CN2CCN(C(c3ccc(F)cc3)c3ccc(F)cc3)CC2)c1=O [Compound 6C, 7-[4-(4,4'-difluorobenzhydryl)piperazino-1-methyl]-2-(N-2-dimethylaminoethyl-N-ethylamino)-4-isopropyl-2,4,6-cycloheptatrien-1-one] | 35.9 |  | 91.5 | 87
CNCCNc1cc(C(C)C)ccc(CN2CCN(C(c3ccc(F)cc3)c3ccc(F)cc3)CC2)c1=O [Compound 3C, 7-[4-(4,4'-difluorobenzhydryl)piperazino-1-methyl]-4-isopropyl-2-(N-2-methylaminoethylamino)-2,4,6-cycloheptatrien-1-one] | 88.0 |  | 91.6 | 49
CC(C)c1ccc(CN2CCN(C(c3ccc(F)cc3)c3ccc(F)cc3)CC2)c(=O)c(NCc2ccccn2)c1 [Compound 12C, 7-[4-(4,4'-difluorobenzhydryl)piperazino-1-methyl]-4-isopropyl-2-(N-2-pyridylmethylamino)-2,4,6-cycloheptatrien-1-one] | 86.4 |  | 89.3 | 47
COc1ccc(CCOc2cc(C(C)C)ccc(CN3CCN(C(c4ccc(F)cc4)c4ccc(F)cc4)CC3)c2=O)cc1OC [Compound 16A, 7-[4-(4,4'-difluorobenzhydryl)piperazino-1-methyl]-2-[2-(3,4-dimethoxyphenyl)ethoxy]-4-isopropyl-2,4,6-cycloheptatrien-1-one] | 19.1 |  | 19.1 | 52
COc1cc(C(C)C)ccc(CN2CCN(C(c3ccccc3)c3ccccc3)CC2)c1=O [Compound 6A, 7-(4-benzhydrylpiperazino-1-methyl)-4-isopropyl-2-methoxy-2,4,6-cycloheptatrien-1-one] | 15.9 |  | 63.2 | 100
